Test results from patent publication EP0726261A1, “Herbidical 1,2,4 thiadiazoles” (American Cyanamid Company, priority 1995, dated 1996).

Key:
Format in all cases: in vivo
Triticum aestivum [1] = assay: Preemergence herbicidal activity (Example 67); set-up: herbicide rating, TRZAW: scale not given here; settings: pre, 800 g/ha
Procedure: (§1) Herbicidal evaluation of compounds of the invention is conducted on the following plant species:
(§2) The soil is a prepared horticultural substrate containing 30% peat, 20% volcanic clay, 30% bark residues and 20% polyamide/styromull in a 1:3 mixture with loamy sand. Test solutions are prepared by dissolving the test compound in acetone containing 0.5% of an alkylphenol/ethylene oxide condensate under the trademark, TRITON® X-155, and diluting with water as needed. The test solutions are applied as a spray to the 3-6 week old seedling plants at dose rates corresponding to 800g/ha in a volume equivalent to 400 L/ha. A pneumatic spraying device employing a Teejet nozzle SS 8002E operating at 3 bar is used for a predetermined time. After spraying, the treated plants are placed on greenhouse benches and cared for in a manner commensurate with conventional greenhouse practice. After 10-21 days, the treated plants are evaluated and rated according to the rating system provided below.
(§3) The soil surface is then sprayed with test solutions as described in the postemergence evaluation hereinabove. After spraying, the treated cups are placed on greenhouse benches and cared for in the manner commensurate with conventional greenhouse practice. About 1-3 weeks after treatment the cups are evaluated and rated according to the rating system provided hereinabove.

Hordeum vulgare [2] = assay: Preemergence herbicidal activity (Example 67); set-up: herbicide rating, HORVW: scale not given here; settings: pre, 800 g/ha
Procedure: as §1, §2, §3

Alopecurus myosuroides [3] = assay: Preemergence herbicidal activity (Example 67); set-up: herbicide rating, ALOMY: scale not given here; settings: pre, 800 g/ha
Procedure: as §1, §2, §3

Setaria viridis [4] = assay: Preemergence herbicidal activity (Example 67); set-up: herbicide rating, SETVI: scale not given here; settings: pre, 800 g/ha
Procedure: as §1, §2, §3

Abutilon theophrasti [5] = assay: Preemergence herbicidal activity (Example 67); settings: pre, 800 g/ha
Procedure: as §1, §2, §3

Amaranthus retroflexus [6] = assay: Preemergence herbicidal activity (Example 67); settings: pre, 800 g/ha
Procedure: as §1, §2, §3

Chenopodium album [7] = assay: Preemergence herbicidal activity (Example 67); settings: pre, 800 g/ha
Procedure: as §1, §2, §3

Galium aparine [8] = assay: Preemergence herbicidal activity (Example 67); settings: pre, 800 g/ha
Procedure: as §1, §2, §3

Helianthus annuus [9] = assay: Preemergence herbicidal activity (Example 67); settings: pre, 800 g/ha
Procedure: as §1, §2, §3

Ipomoea hederacea [10] = assay: Preemergence herbicidal activity (Example 67); settings: pre, 800 g/ha
Procedure: as §1, §2, §3

Veronica persica [11] = assay: Preemergence herbicidal activity (Example 67); settings: pre, 800 g/ha
Procedure: as §1, §2, §3

Zea mays [12] = assay: Preemergence herbicidal activity (Example 67); settings: pre, 800 g/ha
Procedure: as §1, §2, §3

Abutilon theophrasti [13] = assay: Postemergence herbicidal activity (Example 67); settings: pos, 800 g/ha
Procedure: as §1, §2

Alopecurus myosuroides [14] = assay: Postemergence herbicidal activity (Example 67); settings: pos, 800 g/ha
Procedure: as §1, §2

Amaranthus retroflexus [15] = assay: Postemergence herbicidal activity (Example 67); settings: pos, 800 g/ha
Procedure: as §1, §2

Chenopodium album [16] = assay: Postemergence herbicidal activity (Example 67); settings: pos, 800 g/ha
Procedure: as §1, §2

Galium aparine [17] = assay: Postemergence herbicidal activity (Example 67); settings: pos, 800 g/ha
Procedure: as §1, §2

Helianthus annuus [18] = assay: Postemergence herbicidal activity (Example 67); settings: pos, 800 g/ha
Procedure: as §1, §2

Hordeum vulgare [19] = assay: Postemergence herbicidal activity (Example 67); settings: pos, 800 g/ha
Procedure: as §1, §2

Ipomoea hederacea [20] = assay: Postemergence herbicidal activity (Example 67); settings: pos, 800 g/ha
Procedure: as §1, §2

Setaria viridis [21] = assay: Postemergence herbicidal activity (Example 67); settings: pos, 800 g/ha
Procedure: as §1, §2

Triticum aestivum [22] = assay: Postemergence herbicidal activity (Example 67); settings: pos, 800 g/ha
Procedure: as §1, §2

Veronica persica [23] = assay: Postemergence herbicidal activity (Example 67); settings: pos, 800 g/ha
Procedure: as §1, §2

Zea mays [24] = assay: Postemergence herbicidal activity (Example 67); settings: pos, 800 g/ha
Procedure: as §1, §2

[25] = rated about 1-3 weeks after treatment

COCCc1nsc(C(=O)NC(C)c2cccs2)n1 (racemic) [Example 33]
herbicide rating, TRZAW (Triticum aestivum [1]; [25]): 0
herbicide rating, HORVW (Hordeum vulgare [2]; [25]): 0
herbicide rating, ALOMY (Alopecurus myosuroides [3]; [25]): 0
herbicide rating, SETVI (Setaria viridis [4]; [25]): 0
herbicide rating, ABUTH (Abutilon theophrasti [5]; [25]): 0
herbicide rating, AMARE (Amaranthus retroflexus [6]; [25]): 0
herbicide rating, CHEAL (Chenopodium album [7]; [25]): 2 (6-15%)
herbicide rating, GALAP (Galium aparine [8]; [25]): 0
herbicide rating, HELAN (Helianthus annuus [9]; [25]): 0
herbicide rating, IPOHE (Ipomoea hederacea [10]; [25]): 0
herbicide rating, VERPE (Veronica persica [11]; [25]): 5 (45-64%)
herbicide rating, ZEAMX (Zea mays [12]; [25]): 0
herbicide rating, ABUTH (Abutilon theophrasti [13]; rated after 10-21 days): 2 (6-15%)
herbicide rating, ALOMY (Alopecurus myosuroides [14]; rated after 10-21 days): 3 (16-29%)
herbicide rating, AMARE (Amaranthus retroflexus [15]; rated after 10-21 days): 0
herbicide rating, CHEAL (Chenopodium album [16]; rated after 10-21 days): 2 (6-15%)
herbicide rating, GALAP (Galium aparine [17]; rated after 10-21 days): 3 (16-29%)
herbicide rating, HELAN (Helianthus annuus [18]; rated after 10-21 days): 4 (30-44%)
herbicide rating, HORVW (Hordeum vulgare [19]; rated after 10-21 days): 3 (16-29%)
herbicide rating, IPOHE (Ipomoea hederacea [20]; rated after 10-21 days): 4 (30-44%)
herbicide rating, SETVI (Setaria viridis [21]; rated after 10-21 days): 6 (65-79%)
herbicide rating, TRZAW (Triticum aestivum [22]; rated after 10-21 days): 2 (6-15%)
herbicide rating, VERPE (Veronica persica [23]; rated after 10-21 days): 0
herbicide rating, ZEAMX (Zea mays [24]; rated after 10-21 days): 0

CC(NC(=O)c1nc(-c2c(F)cccc2F)ns1)c1cccs1 (racemic) [Example 58, (R/S)-3-(2,6-Difluorophenyl)-[1,2,4]thiadiazole-5-carboxylic acid, [1-(2-thienyl)ethyl]amide]
TRZ AW rating (Triticum aestivum [1]): 0
HOR VW rating (Hordeum vulgare [2]): 0
SET VI rating (Setaria viridis [4]): 0
AMA RE rating (Amaranthus retroflexus [6]): 0
CHE AL rating (Chenopodium album [7]): 0
GAL AP rating (Galium aparine [8]): 0
HEL AN rating (Helianthus annuus [9]): 0
VER PE rating (Veronica persica [11]): 0
ZEA MX rating (Zea mays [12]): 0
AMA RE rating (Amaranthus retroflexus [15]): 7 (80-90%)
CHE AL rating (Chenopodium album [16]): 6 (65-79%)
GAL AP rating (Galium aparine [17]): 6 (65-79%)
HEL AN rating (Helianthus annuus [18]): 9 (100% effect)
HOR VW rating (Hordeum vulgare [19]): 3 (16-29%)
SET VI rating (Setaria viridis [21]): 2 (6-15%)
TRZ AW rating (Triticum aestivum [22]): 2 (6-15%)
VER PE rating (Veronica persica [23]): 4 (30-44%)
ZEA MX rating (Zea mays [24]): 0

COc1ccc(-c2nsc(C(=O)NC(C)c3ccsc3)n2)cc1 (racemic) [Example 61]
TRZ AW rating (Triticum aestivum [1]): 0
HOR VW rating (Hordeum vulgare [2]): 0
ALO MY rating (Alopecurus myosuroides [3]): 0
SET VI rating (Setaria viridis [4]): 0
ABU TH rating (Abutilon theophrasti [5]): 0
AMA RE rating (Amaranthus retroflexus [6]): 0
GAL AP rating (Galium aparine [8]): 0
HEL AN rating (Helianthus annuus [9]): 0
IPO HE rating (Ipomoea hederacea [10]): 0
VER PE rating (Veronica persica [11]): 0
ZEA MX rating (Zea mays [12]): 0
ABU TH rating (Abutilon theophrasti [13]): 0
ALO MY rating (Alopecurus myosuroides [14]): 1 (1-5%)
AMA RE rating (Amaranthus retroflexus [15]): 0
GAL AP rating (Galium aparine [17]): 0
HEL AN rating (Helianthus annuus [18]): 2 (6-15%)
HOR VW rating (Hordeum vulgare [19]): 0
IPO HE rating (Ipomoea hederacea [20]): 0
SET VI rating (Setaria viridis [21]): 0
TRZ AW rating (Triticum aestivum [22]): 0
VER PE rating (Veronica persica [23]): 0
ZEA MX rating (Zea mays [24]): 0

C[C@H](NC(=O)c1nc(-c2c(F)cccc2F)ns1)c1ccccc1 [Example 59, (S)-3-(2,6-Difluorophenyl)-[1,2,4]thiadiazole-5-carboxylic acid, 1-(phenylethyl)amide]
TRZ AW rating (Triticum aestivum [1]): 0
HOR VW rating (Hordeum vulgare [2]): 0
SET VI rating (Setaria viridis [4]): 3 (16-29%)
AMA RE rating (Amaranthus retroflexus [6]): 3 (16-29%)
CHE AL rating (Chenopodium album [7]): 0
GAL AP rating (Galium aparine [8]): 3 (16-29%)
HEL AN rating (Helianthus annuus [9]): 0
VER PE rating (Veronica persica [11]): 6 (65-79%)
ZEA MX rating (Zea mays [12]): 0
AMA RE rating (Amaranthus retroflexus [15]): 8 (91-99%)
CHE AL rating (Chenopodium album [16]): 7 (80-90%)
GAL AP rating (Galium aparine [17]): 6 (65-79%)
HEL AN rating (Helianthus annuus [18]): 6 (65-79%)
HOR VW rating (Hordeum vulgare [19]): 3 (16-29%)
SET VI rating (Setaria viridis [21]): 3 (16-29%)
TRZ AW rating (Triticum aestivum [22]): 3 (16-29%)
VER PE rating (Veronica persica [23]): 8 (91-99%)
ZEA MX rating (Zea mays [24]): 0

O=C(NCc1cccs1)c1nc(-c2c(F)cccc2F)ns1 [Example 60]
TRZ AW rating (Triticum aestivum [1]): 0
HOR VW rating (Hordeum vulgare [2]): 0
SET VI rating (Setaria viridis [4]): 0
AMA RE rating (Amaranthus retroflexus [6]): 0
CHE AL rating (Chenopodium album [7]): 0
GAL AP rating (Galium aparine [8]): 0
HEL AN rating (Helianthus annuus [9]): 0
VER PE rating (Veronica persica [11]): 0
ZEA MX rating (Zea mays [12]): 0
AMA RE rating (Amaranthus retroflexus [15]): 5 (45-64%)
CHE AL rating (Chenopodium album [16]): 0
GAL AP rating (Galium aparine [17]): 0
HEL AN rating (Helianthus annuus [18]): 3 (16-29%)
HOR VW rating (Hordeum vulgare [19]): 0
SET VI rating (Setaria viridis [21]): 0
TRZ AW rating (Triticum aestivum [22]): 0
VER PE rating (Veronica persica [23]): 0
ZEA MX rating (Zea mays [24]): 3 (16-29%)
